ChEMBL document CHEMBL3227920, “Synthesis and activities of antitumor agents” (J Med Chem, 1979)
Activity calls are given as the source filed them. The rule behind the calls is not given here.

Assays:
[1] = test system: L1210; experiment: Antitumor activity against mouse L1210 cells allografted in BDF1 mouse assessed as increase in life span at 10 mg/kg, ip qd for 3 days relative to control; type: functional; conditions: route intraperitoneal
[2] = test system: L1210; experiment: Antitumor activity against mouse L1210 cells allografted in BDF1 mouse assessed as mean survival days at 10 mg/kg, ip qd for 3 days relative to control; type: functional; conditions: route intraperitoneal
[3] = test system: L1210; experiment: Antitumor activity against mouse L1210 cells allografted in BDF1 mouse assessed as mean survival days at 10 mg/kg, ip qd for 3 days; type: functional; conditions: route intraperitoneal
[4] = test system: L1210; experiment: Antitumor activity against mouse L1210 cells allografted in BDF1 mouse assessed as host survival at 8 mg/kg, ip qd for 3 days measured on day 60 relative to control; type: functional, organism-based; set-up: dose 8 mg/kg
[5] = test system: L1210; experiment: Antitumor activity against mouse L1210 cells allografted in BDF1 mouse assessed as mean survival days at 8 mg/kg, ip qd for 3 days; type: functional; conditions: route intraperitoneal
[6] = test system: L1210; experiment: Antitumor activity against mouse L1210 cells allografted in BDF1 mouse assessed as increase in life span at 8 mg/kg, ip qd for 3 days relative to control; type: functional; conditions: route intraperitoneal
[7] = test system: L1210; experiment: Antitumor activity against mouse L1210 cells allografted in BDF1 mouse assessed as mean survival days at 8 mg/kg, ip qd for 3 days relative to control; type: functional; conditions: route intraperitoneal
[8] = test system: L1210; experiment: Antitumor activity against mouse L1210 cells allografted in BDF1 mouse assessed as increase in life span at 20 mg/kg, ip qd for 3 days relative to control; type: functional; conditions: route intraperitoneal
[9] = test system: Mus musculus; experiment: Toxicity in mouse L1210 cells allografted BDF1 mouse assessed as congestive liver at 40 mg/kg, ip qd for 3 days; type: organism-based; set-up: dose 40 mg/kg, route intraperitoneal; conditions: in vivo, 72 h
[10] = test system: L1210; experiment: Antitumor activity against mouse L1210 cells allografted in BDF1 mouse assessed as mean survival days at 20 mg/kg, ip qd for 3 days relative to control; type: functional; conditions: route intraperitoneal
[11] = test system: Mus musculus; experiment: Toxicity in mouse L1210 cells allografted BDF1 mouse assessed as atrophic liver at 20 mg/kg, ip qd for 3 days; type: organism-based; set-up: dose 20 mg/kg, route intraperitoneal; conditions: in vivo, 72 h
[12] = test system: L1210; experiment: Antitumor activity against mouse L1210 cells allografted in BDF1 mouse assessed as mean survival days at 20 mg/kg, ip qd for 3 days; type: functional; conditions: route intraperitoneal
[13] = test system: Mus musculus; experiment: Toxicity in mouse L1210 cells allografted BDF1 mouse assessed as atrophic spleen at 40 mg/kg, ip qd for 3 days; type: organism-based; set-up: dose 40 mg/kg, route intraperitoneal; conditions: in vivo, 72 h

O=NN(CCCl)C(=O)N[C@@H]1O[C@H](CO)[C@@H](O[C@@H]2O[C@H](CO)[C@H](O)[C@H](O)[C@H]2O)[C@H](O)[C@H]1O
Activity [1]: 384.5% | T/C [2]: 9.7 | Survival [3]: 47 days

O=NN(CCCl)C(=O)N[C@@H]1O[C@H](CO)[C@@H](O)[C@H](O)[C@H]1O
Activity [4]: Active | Survival [5]: 60 days | Activity [6]: 512.2%

O=NN(CCCl)C(=O)N[C@@H]1O[C@H](CO)[C@@H](O[C@@H]2O[C@H](CO)[C@@H](O)[C@H](O)[C@H]2O)[C@H](O)[C@H]1O
T/C [7]: 7.2 | Survival [5]: 42 days | Activity [6]: 483.3%

O=NN(CCCl)C(=O)N[C@@H]1OC[C@@H](O)[C@H](O)[C@H]1O
T/C [7]: 11 | Activity [4]: Active | Survival [5]: 60 days | Activity [6]: 445.5%

O=NN(CCCl)C(=O)N[C@@H]1O[C@H](CO)[C@@H](O)[C@H](O)[C@@H]1O
Activity [4]: inactive | Survival [5]: 18.3 days | Activity [6]: 103.3%

O=NN(CCCl)C(=O)N[C@@H]1O[C@H](CO)[C@H](O)[C@H](O)[C@H]1O
Survival [5]: 47 days | Activity [6]: 405.4%

O=NN(CCCl)C(=O)N[C@@H]1O[C@H](CO)[C@@H](O[C@H]2O[C@H](CO)[C@@H](O)[C@H](O)[C@H]2O)[C@H](O)[C@H]1O
Activity [8]: 403.3% | Activity [9]: Toxic | T/C [10]: 9 | Activity [11]: Toxic | Survival [12]: 45.3 days | Activity [13]: Toxic
